For assay [1], the target named is T1, hDGKzeta(1-928)-N-His (DGKZ) (Homo sapiens, UniProt Q13574).
T1 construct: hDGKzeta(1-928)-N-His; His (N)
As to the kind of experiment: In vitro DGK inhibition assay (ADP-Glo, in house), DGK zeta. In kind it is biochemical. The settings on record: isomer A; 2 nM DGK ζ, 50 μM ATP, 125 μM DLG in liposomes, 1 hour reaction; read-out: DGKzeta ADP Glo assay IC50. As to the method: DGK α and ζ kinase use ATP to phosphorylate the substrate 1,2-dilauroyl-sn-glycerol (DLG, incorporated in the liposomes). ATP is converted to ADP as a result of this enzymatic reaction.
After the kinase reaction, an ATP-depletion reagent is added to terminate the kinase reaction and deplete any remaining ATP, leaving only ADP. Second, a detection reagent is added to simultaneously convert ADP to ATP and allow the newly synthesized ATP to be converted to light using a coupled luciferase/luciferin reaction.
Full length DGKA and Z were expressed in Sf21 insect cells by infecting the cells with the baculovirus stock at MOI of 2. Purification of both enzymes was performed as previously described by Takahashi et al., PeerJ, 2018 (Takahashi, D.; Sakane, F. Expression and purification of human diacylglycerolkinase alpha from baculovirus-infected insect cells for structural studies. PeerJ2018, 6, No. e5449).
A concentrated liposome solution was prepared in assay buffer without DTT and BSA: 2 mM of DLG in 21 mM of total liposome (2 mM DLG/8 mM PS/11 mM PC). The reaction mixtures contain the assay buffer with a final DLG concentration of 125 μM ATP concentrations of 25 μM (for DGKA assay) or 50 μM (for DGKZ assay). The reactions were started by addition of DGK α and ζ kinases at 4 nM and 2 nM final concentrations, respectively. After 1 hour reaction, the amount of ADP formed was detected with the ADP-Glo kinase assay (Promega) according to the manufacturer instructions. Compounds were added in 11I-points dose response, starting at 10 mM, 1:3 dilutions, with a final DMSO concentration of […]. The multidrop combi was used as a liquid handler and luminescence was read with 0.5 s by the envision reader (PE).

The subject of a further assay is primary human T-cells. The assay is described as follows: T-cell proliferation assay (CellTiter-Glo). The class given is cell-based. The conditions noted are these: isomer A; for EC50: CD3 antibody-stimulated T-cells, CellTiter-Glo after 5 days, read-out: Tcell Proliferation CD3 EC50; for Emax: read-out: Emax proliferation (% activation). As to the method:
Expanded primary human T-cells are thawed and cultured in RPMI 1640 (Gibco, #61870-010)+5% human serum (HS, Sigma, #H3667)+1 mM Sodium Pyruvate (Gibco, #11360-039)+50 μM 2-mercaptoethanol (Gibco, #31350-010) and 1× Pen-Strep (Life Technologies, #15140122) medium at density of 2 Mio/ml for 3 hours in 5% CO2, 37° C. and 95% humidity. For coating of plates, PBS++ only or PBS++ with CD3 antibody (concentration depending on donor and determined by CD3 titrations) is added 100 μl/well to Poly-D Lysine coated 96-well plates. Plates are sealed and incubated at room temperature for 3 hours on a table-top rocking platform. After incubation, plates are washed once with PBS−− and filled with 40 μl/well culture medium only. Compounds are then added (see next section) to medium only plates. After 3 hours of culturing the T-cells, cells are filtered through a cell strainer (Miltenyi Biotech, #130-041-407), counted again and concentration is adjusted to 1.25 Mio/ml.
Cells are then seeded 80 μl/well to the 40 μl/well including dispensed compounds according to plate layout. By adding cells, compounds are further diluted 1:3, and resulting in 100k cells/120 μl/well. After 48 hours 40 μl of supernatant is collected carefully from the top while not disturbing the cells. Cells are assessed for proliferation 5 days later by measuring […] using CellTiterGlo (Promega).
Compounds were added in a 5 or 6 pt dose response with the Tecan D300e Digital Dispenser, all conditions 3 times more concentrated than the end-concentration, since cells are added afterwards (80 μl cells to 40 μl prepared medium with treatment). The DR was starting at 20 μM or 10 μM final top concentration and a dilution factor of 3.333. The positive control was the reference compound A1 that was added in a dose response as well, additionally to 3 wells of only 20 μM representing the positive stimulator control. All wells were normalized with DMSO to a final concentration of 0.6% (0.2% end-concentration).
After 5 days, for detection of ATP which is directly proportional to the number of cells present per well, the CellTiter-Glo® 2.0 Reagent is used. After visual control for toxicity or precipitations of the tested compounds, the plates are equilibrated to room temperature for 45 minutes. CellTiter-Glo® 2.0 Reagent is equilibrated to room temperature as well. After equilibration, an equal amount of CellTiter-Glo reagent is added to the cells (80 μl/well) with an electronic multichannel pipette. Plates are placed on a rocking platform for 15 minutes at room temperature. After incubation, the bottom of the plates is sealed with backing tape. Luminescence is measured with PHERAstar FSX (interval time 0.5 sec, gain 3000, focal height 15 mm) and exported as CSV file for analysis in Genedata screener.
CD3 and PBS plates were analysed separately in Genedata Screener using Roche Normalization PCT_POS_CTRL with DMSO set as Neutral Control and 20 μM of the reference compound A1 set as Stimulator Control/100%.
For CD3 conditions EC50 and Emax of the fitted sigmoidal curve were reported. If no curve could be fitted, the EC50 was reported as blank field and the Emax was based on individual data points. […] Compounds which activate unstimulated cells (see IL2 measurements) or compounds which negatively affected viability were flagged.

[2] abbreviates: Homo sapiens, T-cell, 120 h, CD3 condition, 5 days, 20 μM reference compound A1 = 100%, DMSO neutral control.

Read-outs that look alike come from different tables or passages of the source.

T1 sequence (Q13574 whole entry): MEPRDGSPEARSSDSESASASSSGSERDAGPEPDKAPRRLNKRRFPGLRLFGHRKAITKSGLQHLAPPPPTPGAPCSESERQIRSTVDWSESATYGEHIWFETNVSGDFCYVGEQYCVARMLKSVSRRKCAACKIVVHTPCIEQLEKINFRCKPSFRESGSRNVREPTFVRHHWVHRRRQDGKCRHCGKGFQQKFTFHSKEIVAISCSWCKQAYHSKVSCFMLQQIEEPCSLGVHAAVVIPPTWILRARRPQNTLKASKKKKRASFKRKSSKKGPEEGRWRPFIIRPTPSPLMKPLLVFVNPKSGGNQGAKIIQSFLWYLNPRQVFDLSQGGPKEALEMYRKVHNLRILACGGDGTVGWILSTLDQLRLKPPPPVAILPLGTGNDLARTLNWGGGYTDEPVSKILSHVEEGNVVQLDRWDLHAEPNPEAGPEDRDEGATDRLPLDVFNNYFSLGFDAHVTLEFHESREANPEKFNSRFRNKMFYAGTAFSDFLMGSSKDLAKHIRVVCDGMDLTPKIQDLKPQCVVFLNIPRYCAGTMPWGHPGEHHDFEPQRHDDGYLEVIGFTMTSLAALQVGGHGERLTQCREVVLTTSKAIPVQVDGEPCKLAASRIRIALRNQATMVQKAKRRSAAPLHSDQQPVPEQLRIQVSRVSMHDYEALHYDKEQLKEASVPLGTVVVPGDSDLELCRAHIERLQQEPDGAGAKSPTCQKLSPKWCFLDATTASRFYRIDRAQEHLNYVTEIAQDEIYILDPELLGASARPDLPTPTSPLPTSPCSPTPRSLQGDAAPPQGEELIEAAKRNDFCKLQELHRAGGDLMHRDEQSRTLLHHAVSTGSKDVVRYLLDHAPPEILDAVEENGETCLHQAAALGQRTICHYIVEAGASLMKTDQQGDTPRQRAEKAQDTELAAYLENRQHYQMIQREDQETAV

On to `COC(=O)N1CC2CC(c3nnc(-c4cc5c(cc4F)C(F)(F)C[C@@H](N)C(=O)N5Cc4ccc(Cl)cc4)o3)(C2)C1` (single isomer, unassigned) [Example 36], for which the IC50 in assay [1] turned out to be 5920 nM. Besides, the EC50 with primary human T-cells (Homo sapiens, T-cell, 120 h) was 168 nM. Besides, the Emax in the assay with primary human T-cells (setting [2]) is 82%.

Regarding `COc1ccc(-c2ccc(CN3C(=O)[C@H](N)CC(F)(F)c4cc(F)c(-c5nnc(C(C)(C)C#N)o5)cc43)cc2)nc1` (single isomer, unassigned) [Example 38], the IC50 in assay [1] worked out at 5800 nM. For the same compound, in the assay with primary human T-cells (Homo sapiens, T-cell, 120 h), the EC50 was 1020 nM. Besides, the Emax in the assay with primary human T-cells (setting [2]) turned out to be 105%.

`COc1ccc(-c2ccc(CN3C(=O)[C@H](N)CC(F)(F)c4cc(F)c(-c5nnc(C(C)(C)S(C)(=O)=O)o5)cc43)cc2)nc1` (single isomer, unassigned) [Example 39]: in assay [1], the IC50 came out at 38800 nM. In addition, the EC50 with primary human T-cells (Homo sapiens, T-cell, 120 h) turned out to be 1420 nM. Further, in the assay on primary human T-cells (setting [2]), the Emax worked out at 98%.

For the compound `CC(C)(C#N)c1nnc(-c2cc3c(cc2F)C(F)(F)C[C@@H](N)C(=O)N3Cc2ccc(-c3ccc(C(F)F)cn3)cc2)o1` (single isomer, unassigned) [Example 40], in assay [1], the half-maximal inhibitory concentration (IC50) turned out to be 2500 nM. Moreover, the EC50 in the assay on primary human T-cells (Homo sapiens, T-cell, 120 h) stood at 655 nM. For the same compound, in the assay on primary human T-cells (setting [2]), the Emax amounted to 99%.

On to `CC(C)(C#N)c1nnc(-c2cc3c(cc2F)C(F)(F)C[C@@H](N)C(=O)N3Cc2ccc(-c3ccc(OC(F)F)cn3)cc2)o1` (single isomer, unassigned) [Example 41], for which the IC50 in assay [1] was determined as 8220 nM. Besides, in the assay on primary human T-cells (Homo sapiens, T-cell, 120 h), the EC50 was found to be 196 nM. In the assay with primary human T-cells (setting [2]), the Emax came to 113%.

Consider `COC(=O)N1CC2CC(c3nnc(-c4cc5c(cc4F)C(F)(F)CC(N)C(=O)N5Cc4ccc(-c5noc(C(F)(F)F)n5)cc4)o3)(C2)C1` (single isomer, unassigned) [Example 42], for which the IC50 in assay [1] stood at 2220 nM. Also, the EC50 in the assay on primary human T-cells (Homo sapiens, T-cell, 120 h) was determined as 1260 nM. In addition, the Emax with primary human T-cells (setting [2]) was 117%.

`CC(C)(C)c1nnc(-c2cc3c(cc2F)C(F)(F)CC(N)C(=O)N3Cc2ccc(OC(F)(F)F)cc2)o1` (stereo not drawn) [Example 1, 3-amino-8-(5-tert-butyl-1,3,4-oxadiazol-2-yl)-5,5,7-trifluoro-1-[[4-(trifluoromethoxy)phenyl]methyl]-3,4-dihydro-1-benzazepin-2-one]: in assay [1], the IC50 was 19900 nM. Moreover, the EC50 with primary human T-cells (Homo sapiens, T-cell, 120 h) stood at 2590 nM. Also, the Emax in the assay on primary human T-cells (setting [2]) was determined as 74%.

With “(3S)-3-amino-5,5,7-trifluoro-8-(5-morpholino-1,3,4-oxadiazol-2-yl)-1-[[4-(trifluoromethoxy)phenyl]methyl]-3,4-dihydro-1-benzazepin-2-one and (3R)-3-amino-5,5,7-trifluoro-8-(5-morpholino-1,3,4-oxadiazol-2-yl)-1-[[4-(trifluoromethoxy)phenyl]methyl]-3,4-dihydro-1-benzazepin-2-one [Example 3]”, the IC50 in assay [1] stood at 2890 nM. Besides, in the assay on primary human T-cells, the EC50 came out at 550 nM. Further, in the assay on primary human T-cells (CD3 condition, 5 days, 20 μM reference compound A1 = 100%, DMSO neutral control), the “Emax proliferation (% activation)” value is on record as 57 % activation.

(Values after patent US20250236614A1, “BICYCLIC TETRAHYDROAZEPINE DERIVATIVES” (Hoffmann-La Roche Inc., priority 2022, published 2025).)
